# Measurements: US20250345446A1 (Draupnir Bio ApS, priority 2022, published 2025)
# Where two headings read alike, the source gives them in different places. Residues, ends and D or L forms follow the SMILES beside them. *: point of attachment. Biotin = O=C1N[C@H]2[C@H](CS[C@H]2CCCCC(=O)*)N1
# Assays:
# [1] = tested on: HEK293/sortilin cells; test: Depletion of NA650 from cell culture supernatant; type: cell-based; details: after 48 and 72 hours, NA650 100 nM, 20 nM-5 μM
# Protocol: HEK293/sortilin cells were cultured in culture media containing DMEM (Lonza) further supplemented with 10% fetal bovine serum (Sigma), 1% GlutaMax Supplement (Gibco), penicillin-streptomycin (Thermo Fischer) and selection antibiotics 100 μg/mL Zeocin (Invitrogen). 35k cells/well were seeded in poly-L-lysine coated 96-well plates (Perkin Elmer) and allowed to incubate for 16-24 h in cell incubator (37° C., humidified, 5% CO2). Culture media were discarded, and the cells were washed with assay medium containing FluoroBright DMEM (Gibco) supplemented with 10% fetal bovine serum (Sigma) and 1% GlutaMax Supplement (Gibco). The media were discarded and replaced with assay media or assay medium containing 100 nM NA650 (Invitrogen). For wells evaluating the bifunctional compounds, the assay medium also contained concentrations ranging from 20 nM to 5 μM. After an incubation period of up to 72 h in the cell incubator the media were harvested and the presence of NA650 were evaluated by fluorescence intensity (FI) measurements of DyLight650 using a fluorescence plate reader (BMG Labtech Clariostar).
# HEK293/sortilin cells (35k cells/96-well) were seeded in culture media (as described in Example 3) and incubated for 24 h in cell incubator. Culture media were discarded, and the cells were washed with assay medium containing FluoroBright DMEM (Gibco) and supplements as described in Example 3, before incubation in assay medium containing 100 nM NA650 and small molecule bifunctional compounds (20 nM to 5 μM). After an incubation period of up to 72 h, the media were harvested and the presence of NA650 were evaluated by FI measurements of DyLight650 using a fluorescence plate reader (BMG Labtech Clariostar).
# [2] = target: streptavidin, bifunctional compound and sortilin-6his (UniProt P22629+Q99523, V650M); test: TR-FRET ternary complex formation streptavidin / bifunctional peptide / sortilin-6his; details: Table 2; […] incubation, HTRF ratio 665/620 nm
# [3] = target: T1, soluble ectodomain of sortilin-6his (Homo sapiens, UniProt Q99523, V650M); test: MST binding to soluble ectodomain of sortilin-6his; details: MST, read-out: KD score, binding to sortilin (Kd)
# T1 construct: the soluble ectodomain of sortilin-6his is measured by microscale thermophoresis (MST)
# T1 sequence (Q99523 with tags, fused parts or gaps V650M): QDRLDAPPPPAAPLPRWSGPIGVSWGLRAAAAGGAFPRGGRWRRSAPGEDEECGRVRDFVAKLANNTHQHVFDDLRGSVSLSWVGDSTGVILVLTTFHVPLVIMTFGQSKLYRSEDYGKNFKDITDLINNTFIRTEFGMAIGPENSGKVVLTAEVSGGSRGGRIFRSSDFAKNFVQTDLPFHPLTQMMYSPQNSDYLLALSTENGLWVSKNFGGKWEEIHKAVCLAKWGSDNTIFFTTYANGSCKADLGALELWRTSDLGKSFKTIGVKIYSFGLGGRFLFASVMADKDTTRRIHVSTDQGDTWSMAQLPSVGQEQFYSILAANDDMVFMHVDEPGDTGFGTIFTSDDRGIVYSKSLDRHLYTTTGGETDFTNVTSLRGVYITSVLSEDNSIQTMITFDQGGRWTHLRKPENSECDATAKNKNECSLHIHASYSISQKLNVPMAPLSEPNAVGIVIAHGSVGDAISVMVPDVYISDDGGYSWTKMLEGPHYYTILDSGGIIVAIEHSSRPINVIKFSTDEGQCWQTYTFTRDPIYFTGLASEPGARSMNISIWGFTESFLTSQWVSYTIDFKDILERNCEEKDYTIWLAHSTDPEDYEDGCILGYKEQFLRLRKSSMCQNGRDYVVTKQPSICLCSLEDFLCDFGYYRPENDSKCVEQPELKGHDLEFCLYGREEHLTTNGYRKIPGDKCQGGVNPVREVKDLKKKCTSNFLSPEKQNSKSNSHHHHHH
# [4] = tested on: untransfected HEK239 cells; test: Cellular uptake of target in untransfected HEK293 cells (Example 22); type: cell-based; details: HEK293 cells without sortilin, 3 h, 2 nM to 2 μM, corresponding targets
# Description: (§1) Cellular uptake of target was investigated in untransfected HEK239 cells and HEK293 cells expressing sortilin receptor in a methodology analogous to example 3.
# [5] = tested on: HEK293/sortilin; test: Cellular uptake of target in HEK293 cells expressing sortilin receptor (Example 22); type: cell-based; details: 3 h, 2 nM to 2 μM, corresponding targets
# Description: as §1
# [6] = tested on: HEK293/sortilin cells; test: Remaining TNFalpha in conditioned media (ELISA); type: cell-based; details: after 72 h, 20 nM TNFalpha; added TNFalpha (100%) subtracted remaining TNFalpha (%)
# Protocol: In different experiments, HEK293/sortilin cells were incubated with compound gradient series and 20 nM TNFalpha for up to 72 h. Following incubation, remaining TNFalpha in conditioned media was evaluated using human TNF-alpha Quantikine ELISA Kit (R&D systems, DTA00D).
# [7] = tested on: HEK293 cells expressing full length sortilin receptor; test: Cellular uptake of TNFalpha / Cy5-TNFalpha mediated by bifunctional compounds; type: cell-based; details: 24 h, 0.5 nM to 20 μM, leupeptin 80 μM vs without
# Protocol: Cellular uptake of TNFalpha was investigated in HEK293 cells expressing full length sortilin receptor using a methodology analogous to example 3 with TNFalpha target.
# Efficacy of individual bifunctional compounds was assessed as AUC of TNFalpha internalisation (Table 9)
# [8] = tested on: HEK293/sortilin cells; test: Pulse-chase cellular degradation of TNFalpha (Western blot of lysates); type: cell-based; details: 24 h pre-incubation with compound 3 μM and TNFalpha 100 nM, chase 0 h to 24 h
# Protocol: To monitor cellular degradation of target over time, a pulse-chase experiment was performed: HEK293/sortilin cells were pre-incubated with bifunctional compound (3 μM) and TNFalpha (100 nM) for 24 h before replacing culture supernatant with fresh media without target and bifunctional compound. Following replacement of media, cells were incubated for up to 24 h and TNFa levels was assessed at different timepoints by Western blotting of cell lysates.
# [9] = tested on: TNFa plasma levels; test: Mouse model of LPS induced acute systemic inflammation, plasma TNFa; type: in vivo; details: 10 or 30 mg/kg, 1 hour after LPS, C57BL/6J mice, p<0.0001 (one-way ANOVA)
# Protocol: Degrader in vivo efficacy was investigated in a mouse model of lipopolysaccaride (LPS) induced acute systemic inflammation. Female C57BL/6J mice, 8 weeks of age were used in this model, and LPS was dosed as IP injection at a final concentration of 0.5 mg/kg in PBS at 10 ml/kg. 30 min to 3 hours prior LPS administration, animals were dosed with test compound (100-0.3 mg/kg/IP), dexamethasone (Dex) control (0.5 mg/kg/PO) or vehicle control (IP). Untreated (normal) animals were included as control for LPS induced TNFa expression. One hour post LPS administration, blood samples were collected and TNFa level was assessed by Cytometric Bead Array assay.
# [10] = tested on: HEK293/sortilin cells; test: Lysosomal degradation of internalized AlexaFluor488-anti-DNP antibody (blotted lysates); type: cell-based; details: 6:30 h, AlexaFluor488-anti-DNP antibody 100 nM, compound 30 nM
# Protocol: Intracellular levels of AlexaFluor488-anti-DNP antibody (Thermo Fisher) following internalization was investigated in HEK293/sortilin cells. Cells (250k) were seeded in 4-well plates in 250 μL culture medium as described in Example 3 and incubated overnight.
# Culture medium was replaced with assay medium (as described in Example 3) with AlexaFluor488-anti-DNP antibody (Thermo Fisher) (100 nM) and BF005 (30 nM). Selected samples were added sortilin inhibitor, AF38469 (10 μM) or a lysosomal protease inhibitor, Leupeptin (80 μM) (Sigma Aldrich). Cells were incubated 3-6: 30 h in cell incubator before they were washed with dPBS (Bionordika) and medium was either replaced with assay medium without BF005 and AlexaFluor488-anti-DNP antibody and incubated in cell incubator for up to 24 h or cells were lysed. Following incubation, cells were lysed in lysis buffer, and lysates were subjected to SDS-PAGE before transfer of proteins to a nitrocellulose membrane as described in Example 4. AlexaFluor488 FI signal was detected using an iBright 1500 (Thermo Fisher). Following evaluation of FI signal, membrane was blocked and incubated with primary anti-β-actin antibody (1:3500) (Sigma Aldrich) and secondary anti-mouse-HRP antibody (1:3500) (Abcam) and developed and analyzed using ECL reagents (Cytiva) and iBright 1500 (Thermo Fisher), as described in example 4. […]
# [11] = target: T2, Sortilin-6His (Homo sapiens (Human), UniProt Q99523 78-755); test: MST on labelled sortilin-6his ectodomain
# T2 construct: In MST it was labelled non-covalently with RED-tris-NTA; also called soluble ectodomain of sortilin-6his; fluorescent sortilin-6his
# T2 sequence (Q99523 78-755 V650M limits assumed): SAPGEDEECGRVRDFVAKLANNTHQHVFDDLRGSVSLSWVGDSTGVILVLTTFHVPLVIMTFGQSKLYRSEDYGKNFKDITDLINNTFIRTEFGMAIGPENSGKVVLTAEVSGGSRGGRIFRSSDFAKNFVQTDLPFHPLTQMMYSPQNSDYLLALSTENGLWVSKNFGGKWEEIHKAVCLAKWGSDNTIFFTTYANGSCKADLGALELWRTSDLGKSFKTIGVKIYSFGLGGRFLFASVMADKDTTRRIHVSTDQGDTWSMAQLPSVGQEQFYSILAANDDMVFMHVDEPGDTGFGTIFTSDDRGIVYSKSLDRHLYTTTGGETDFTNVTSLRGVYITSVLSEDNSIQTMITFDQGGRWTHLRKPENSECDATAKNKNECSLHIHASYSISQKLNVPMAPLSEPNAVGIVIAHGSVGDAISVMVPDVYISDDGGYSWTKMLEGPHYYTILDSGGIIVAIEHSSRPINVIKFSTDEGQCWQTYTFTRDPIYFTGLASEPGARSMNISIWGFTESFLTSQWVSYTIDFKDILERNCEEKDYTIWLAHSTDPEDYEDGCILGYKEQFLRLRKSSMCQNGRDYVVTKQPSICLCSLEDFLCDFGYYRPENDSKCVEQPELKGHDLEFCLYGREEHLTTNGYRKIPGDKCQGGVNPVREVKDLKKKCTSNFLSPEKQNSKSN
# [12] = Table 4, small molecule bifunctional compounds
molecule,measurement,setting,value
CC(C)C[C@H](NC(=O)[C@H](CC(C)C)NC(=O)[C@H](CCC(N)=O)NC(=O)[C@H](Cc1ccccc1)NC(=O)CNC(=O)CNC(=O)[C@H](CO)NC(=O)CNC(=O)CNC(=O)CNC(=O)CNC(=O)[C@H](CO)NC(=O)CNC(=O)CNC(=O)CNC(=O)CNC(=O)[C@H](CO)NC(=O)CNC(=O)CNC(=O)CCCC[C@@H]1SC[C@@H]2NC(=O)N[C@@H]21)C(=O)O [SEQ ID NO.: 155] (Biotin-GGSGGGGSGGGGSGGFQLL-OH),NA650 FI signal in supernatant compared to SEQ ID NO.: 147 (in words),[1],further reduction of target in cell culture supernatant
same,"AUC score, TR-FRET measurements of ternary complex formation",[2],++ (AUC > 5000)
same,Kd,"[3]; Table 1, biotin-linker-peptide bifunctional compounds",100 to 2000 nM
same,cell associated FI response to increasing degrader concentration,[4],No response
same,cell associated FI response to increasing degrader concentration,[5],bell-shaped FI response
"C[C@@H]1CN(c2ncc(-c3ccc4c(n3)N(Cc3cccnc3C#N)C(C)(C)C4=O)cn2)CCN1C(=O)CNC(=O)CCCCCCCCCCCNC(=O)c1cccc(Oc2ccc(C(=O)N[C@@H](CCC(C)(C)C)C(=O)O)cn2)c1 [BF042, (2S)-2-[[6-[3-[[12-[[2-[(2R)-4-[5-[1-[(2-cyano-3-pyridyl)methyl]-2,2-dimethyl-3-oxo-pyrrolo[2,3-b]pyridin-6-yl]pyrimidin-2-yl]-2-methyl-piperazin-1-yl]-2-oxo-ethyl]amino]-12-oxo-dodecyl]carbamoyl]phenoxy]pyridine-3-carbonyl]amino]-5,5-dimethyl-hexanoic acid]",Maximum clearance rates of TNFalpha from conditioned media,[6],74.4%
same,cell associated FI signal with addition of leupeptin,[7],marked increases cell associated signal
same,TNFalpha bands in cell lysate over time,[8],barely detectable after 7 h
same,Kd,[3]; [12],1 to 10 nM
"Cc1nc2cc(F)c(-c3cnc(N4CCN(C(=O)Cn5cc(COCCOCCOCC(=O)N6CCC(Oc7cccc(Oc8ccc(C(=O)N[C@@H](CCC(C)(C)C)C(=O)O)cn8)c7)CC6)nn5)[C@H](C)C4)nc3)nc2c(N[C@H](C)c2cc(C#N)ccc2F)c1Cl [BF094, (2S)-2-[[6-[3-[[1-[2-[2-[2-[[1-[2-[(2R)-4-[5-[7-chloro-8-[[(1R)-1-(5-cyano-2-fluoro-phenyl)ethyl]amino]-3-fluoro-6-methyl-1,5-naphthyridin-2-yl]pyrimidin-2-yl]-2-methyl-piperazin-1-yl]-2-oxo-ethyl]triazol-4-yl]methoxy]ethoxy]ethoxy]acetyl]-4-piperidyl]oxy]phenoxy]pyridine-3-carbonyl]amino]-5,5-dimethyl-hexanoic acid]",plasma TNFa compared to vehicle group,[9],significant decrease
same,Kd,[3]; [12],1 to 10 nM
"CNC(=O)c1cccc2c(Oc3ccc(C(=O)N[C@@H](CCC(C)(C)C)C(=O)O)cn3)cccc12 [SB001, (2S)-5,5-dimethyl-2-[[6-[[5-(methylcarbamoyl)-1-naphthyl]oxy]pyridine-3-carbonyl]amino]hexanoic acid]",Ig heavy chain (HC) band in lysates,[10],absent
Biotin-GGSGGGGSGGGGSGG-OH (SMILES O=C(O)CNC(=O)CNC(=O)[C@H](CO)NC(=O)CNC(=O)CNC(=O)CNC(=O)CNC(=O)[C@H](CO)NC(=O)CNC(=O)CNC(=O)CNC(=O)CNC(=O)[C@H](CO)NC(=O)CNC(=O)CNC(=O)CCCC[C@@H]1SC[C@@H]2NC(=O)N[C@@H]21) [Biotin-GGSGGGGSGGGGSGG-OH],binding result,[11],no binding
